Assay results published in PubChem BioAssay (NCI).
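Briefly, cells in 96-well plates were exposed to five compound concentrations for 48 h, and endpoints were estimated by linear interpolation. TGI marks complete inhibition of growth.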

Tests used:
Assay in all cases: NCI-60 cell line screen, 48 h
[1] = test system: 786-0 renal
[2] = test system: A498 renal
[3] = test system: A549 NSCLC
[4] = test system: ACHN renal
[5] = test system: CAKI-1 renal
[6] = test system: CCRF-CEM leukemia
[7] = test system: COLO 205 colon
[8] = test system: DLD-1 colon
[9] = test system: DMS 114 small cell lung
[10] = test system: DMS 273 small cell lung
[11] = test system: EKVX NSCLC
[12] = test system: HCC-2998 colon
[13] = test system: HCT-116 colon
[14] = test system: HCT-15 colon
[15] = test system: HL-60(TB) leukemia
[16] = test system: HOP-18 NSCLC
[17] = test system: HOP-62 NSCLC
[18] = test system: HOP-92 NSCLC
[19] = test system: HT29 colon
[20] = test system: IGROV1 ovarian
[21] = test system: K-562 leukemia
[22] = test system: KM12 colon
[23] = test system: LOX IMVI melanoma
[24] = test system: LXFL 529 NSCLC
[25] = test system: M14 melanoma
[26] = test system: M19-MEL melanoma
[27] = test system: MALME-3M melanoma
[28] = test system: MOLT-4 leukemia
[29] = test system: NCI-H23 lung
[30] = test system: NCI-H460 lung
[31] = test system: NCI-H522 lung
[32] = test system: OVCAR-3 ovarian
[33] = test system: OVCAR-4 ovarian
[34] = test system: OVCAR-5 ovarian
[35] = test system: OVCAR-8 ovarian
[36] = test system: RPMI-8226 leukemia
[37] = test system: SF-268 CNS
[38] = test system: SF-295 CNS
[39] = test system: SF-539 CNS
[40] = test system: SK-MEL-2 melanoma
[41] = test system: SK-MEL-28 melanoma
[42] = test system: SK-MEL-5 melanoma
[43] = test system: SK-OV-3 ovarian
[44] = test system: SN12C renal
[45] = test system: SNB-75 CNS
[46] = test system: SW-620 colon
[47] = test system: TK-10 renal
[48] = test system: U251 CNS
[49] = test system: UACC-62 melanoma
[50] = test system: XF 498 CNS
[51] = test system: KM20L2 colon
[52] = test system: NCI-H226 lung
[53] = test system: RXF 393 renal
[54] = test system: RXF-631 renal
[55] = test system: SNB-19 CNS
[56] = test system: SNB-78 CNS
[57] = test system: SR leukemia
[58] = test system: UACC-257 melanoma
[59] = test system: UO-31 renal

Measured: TGI

O=C(O)CCN(CCCCN(CCC(=O)O)CCC(=O)O)CCC(=O)O
not listed: [51] | [52] | [53] | [54] | [55] | [56] | [57] | [58] | [59]
> 100 µM: all other assays above

CC1(C)O[C@H]2[C@H](O)C[C@](O)(CO)C[C@H]2O1
not listed: [2] | [6] | [12] | [15] | [16] | [17] | [23] | [37] | [50]
> 100 µM: all other assays above
